Results as given in patent US20240109918A1, “HETEROCYCLIC COMPOUNDS AND USES THEREOF” (Kumquat Biosciences Inc., priority 2022, published 2024).

Assays:
KRASG12D = molecular target: T1, KRASG12D (Homo sapiens, UniProt P01116, G12D); assay: Bio-Biochem-PPI-HTRF Ras-SOS1 interaction assay (KRAS G12D); format: biochemical; conditions: 5 nM
T1 construct: made in house; host or cells: E. coli BL21 (DE3)
Description: (§1) The assay buffer can contain −5 mM HEPES pH 7.4, ˜150 mM NaCl, ˜ 1 mM DTT, 0.05% BSA and 0.0025% (v/v) Igepal. A Ras working solution is prepared in an assay buffer containing typically a suitable amount of the protein construct (e.g., GST-tagged K-Ras mutant) and the FRET donor (e.g., antiGST-Eu(K) from Cisbio, France). A SOS1 working solution is prepared in an assay buffer containing suitable amount of the protein construct (e.g., His-hSOS1) and the FRET acceptor (e.g., anti-6His-XL665 from Cisbio, France). A suitable amount of the protein construct will depend on the range of activity or range of IC50 values being detected or under investigation. For detecting IC50 within a range of 500 nM, the protein constructs of the same range of molarity can be utilized. […] A fixed volume of DMSO with or without test compound is transferred into a 384-well plate. Ras working solution is added to all wells of the test plate. SOS1 working solution is added to all wells except for those that are subsequently filled the inhibitor control solution. Upon incubation for about 10 minutes or longer, the fluorescence is measured with a M1000Pro plate reader (Tecan) using HTRF detection (excitation 337 nm, emission 1:620 nm, emission 2: 665 nm). Compounds are tested in duplicates at different concentrations (for example, 10 μM, 2.5 μM, 0.63 μM, 0.16 μM, 0.04 μM, 0.01 μM test compound). The ratiometric data (i.e., emission 2 divided by emission 1) is used to calculate IC50 values against Ras using GraphPad Prism (GraphPad software). Following this general procedure, samples were tested with or without a subject compound disclosed herein including compounds exemplified in Table 1 to assess their abilities to inhibit a mutant K-Ras relative to another mutant K-Ras or wildtype K-Ras. Signaling output measured in terms of IC50 values can be obtained, a ratio of IC50 against one mutant relative to another mutant can be calculated. For instance, a selective reduction of K-Ras G12D signaling output can be evidenced by a ratio greater than one. In particular, a selective reduction of K-Ras G12D signaling relative to K-Ras WT signaling is evidenced as the ratio of IC50 (against K-Ras WT) to IC50 (against K-Ras G12D) is greater than 1.

KRASwt = molecular target: T2, KRASwt (Homo sapiens, UniProt P01116); assay: Bio-Biochem-PPI-HTRF Ras-SOS1 interaction assay (KRAS wt); format: biochemical; conditions: 5 nM
T2 construct: made in house; host or cells: E. coli BL21 (DE3)
T2 sequence (P01116 1-188 isoform P01116-2): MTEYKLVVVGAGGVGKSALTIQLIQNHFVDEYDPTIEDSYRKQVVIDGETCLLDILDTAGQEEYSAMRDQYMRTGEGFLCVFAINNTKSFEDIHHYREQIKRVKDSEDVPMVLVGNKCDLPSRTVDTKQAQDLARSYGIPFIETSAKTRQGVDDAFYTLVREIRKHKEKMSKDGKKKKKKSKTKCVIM
Description: as §1

T1 sequence (P01116 1-188 isoform P01116-2 G12D): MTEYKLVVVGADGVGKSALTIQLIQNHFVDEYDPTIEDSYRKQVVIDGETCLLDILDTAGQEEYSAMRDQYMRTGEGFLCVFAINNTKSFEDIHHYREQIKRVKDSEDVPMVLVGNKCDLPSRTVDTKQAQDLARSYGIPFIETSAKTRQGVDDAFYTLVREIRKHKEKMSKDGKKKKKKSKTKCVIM

SMILES	IC50 (KRASG12D) [µM]	IC50 (KRASwt) [µM]
N#Cc1c(N)sc2c(F)ccc(-c3c(Cl)cc4c(N5CCC6(CN(C#N)C6)C5)nc(OC[C@@]56CCCN5C[C@H](F)C6)nc4c3F)c12 [compound 182, 6-(7-(2-amino-3-cyano-7-fluorobenzo[b]thiophen-4-yl)-6-chloro-8-fluoro-2-(((2R,7aS)-2-fluorotetrahydro-1H-pyrrolizin-7a(5H)-yl)methoxy)quinazolin-4-yl)-2,6-diazaspiro[3.4] octane-2-carbonitrile]	< 5	< 5
Cn1nccc1C(=O)N1CC2(CCCCN(c3nc(OC[C@@]45CCCN4C[C@H](F)C5)nc4c(F)c(-c5ccc(F)c6sc(N)c(C#N)c56)c(Cl)cc34)C2)C1 [compound 134, 2-amino-4-(6-chloro-8-fluoro-2-(((2R,7aS)-2-fluorotetrahydro-1H-pyrrolizin-7a(5H)-yl)methoxy)-4-(2-(1-methyl-1H-pyrazole-5-carbonyl)-2,6-diazaspiro[3.6]decan-6-yl)quinazolin-7-yl)-7-fluorobenzo[b]thiophene-3-carbonitrile]	< 5	< 5
N#Cc1c(N)sc2c(F)ccc(-c3c(Cl)cc4c(N5CCC6(CC5)CN(C(=O)C5CC5(F)F)CCO6)nc(OC[C@@]56CCCN5C[C@H](F)C6)nc4c3F)c12 (stereo partly drawn) [compound 171, 2-amino-4-(6-chloro-4-(4-(2,2-difluorocyclopropane-1-carbonyl)-1-oxa-4,9-diazaspiro[5.5]undecan-9-yl)-8-fluoro-2-(((2R,7aS)-2-fluorotetrahydro-1H-pyrrolizin-7a(5H)-yl)methoxy)quinazolin-7-yl)-7-fluorobenzo[b]thiophene-3-carbonitrile]	< 5	< 5
Nc1nc2c(-c3c(Cl)cc4c(N5CCOC6(C5)CN(S(=O)(=O)F)C6)nc(OC[C@@]56CCCN5C[C@H](F)C6)nc4c3F)ccc(F)c2s1 [compound 179, 8-(7-(2-amino-7-fluorobenzo[d]thiazol-4-yl)-6-chloro-8-fluoro-2-(((2R,7aS)-2-fluorotetrahydro-1H-pyrrolizin-7a(5H)-yl)methoxy)quinazolin-4-yl)-5-oxa-2,8-diazaspiro[3.5]nonane-2-sulfonyl fluoride]	≥ 5	< 5

Next, values leading:

IC50 (KRASG12D) [µM]	IC50 (KRASwt) [µM]	SMILES
< 5	< 5	N#Cc1c(N)sc2c(F)ccc(-c3c(Cl)cc4c(N5CCCCC6(CN(C(=O)C7(C(F)(F)F)CC7)C6)C5)nc(OC[C@@]56CCCN5C[C@H](F)C6)nc4c3F)c12 [compound 244, 2-amino-4-(6-chloro-8-fluoro-2-(((2R,7aS)-2-fluorotetrahydro-1H-pyrrolizin-7a(5H)-yl)methoxy)-4-(2-(1-(trifluoromethyl)cyclopropane-1-carbonyl)-2,6-diazaspiro[3.6]decan-6-yl)quinazolin-7-yl)-7-fluorobenzo[b] thiophene-3-carbonitrile]
< 5	< 5	N#Cc1c(N)sc2c(F)ccc(-c3c(Cl)cc4c(N5CCCCC6(CN(C(=O)[C@H]7CCOC7)C6)C5)nc(OC[C@@]56CCCN5C[C@H](F)C6)nc4c3F)c12 [compound 319, 2-amino-4-(6-chloro-8-fluoro-2-(((2R,7aS)-2-fluorotetrahydro-1H-pyrrolizin-7a(5H)-yl)methoxy)-4-(2-((S)-tetrahydrofuran-3-carbonyl)-2,6-diazaspiro[3.6]decan-6-yl)quinazolin-7-yl)-7-fluorobenzo[b]thiophene-3-carbonitrile]
< 5	< 5	CC(O)(C(=O)N1CC2(CCCCN(c3nc(OC[C@@]45CCCN4C[C@H](F)C5)nc4c(F)c(-c5ccc(F)c6sc(N)c(C#N)c56)c(Cl)cc34)C2)C1)C1CC1 (stereo partly drawn) [compound 329, 2-amino-4-(6-chloro-4-(2-(2-cyclopropyl-2-hydroxypropanoyl)-2,6-diazaspiro[3.6]decan-6-yl)-8-fluoro-2-(((2R,7aS)-2-fluorotetrahydro-1H-pyrrolizin-7a(5H)-yl)methoxy)quinazolin-7-yl)-7-fluorobenzo[b]thiophene-3-carbonitrile]
